Patent US8088806B2 (Achillion Pharmaceuticals, Inc., priority 2005, dated 2012)

test system: HCV replicon; assay: Replicon based assay of HCV replication inhibition (NPT ELISA); type: cell-based, Hepatitis C virus; conditions: Hepatitis C virus, read-out: Activity
Summary of the method: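 NPT (neomycin phosphotransferase) content, proportional to replicon replication, quantified by capture ELISA on day four. Before that, replicon-bearing Huh-7 cells in G418-free screening medium were exposed three days at 37° C to compound, typically six doses from 10 to 0.03 micromolar, with equal DMSO across wells.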

Compound	EC50
CCCCCCCCOc1cc([N+](=O)[O-])c(Nc2nc(-c3cccnc3)c([N+](=O)[O-])s2)cc1C(F)(F)F [compound 788, N-(5-(trifluoromethyl)-2-nitro-4-(octyloxy)phenyl)-5-nitro-4-(pyridin-3-yl)thiazol-2-amine]	1000 to 10000 nM

same assay, conditions: Hepatitis C virus, replicon based assay of HCV replication inhibition; Table IV; read-out: Activity

Compound	EC50
CCCCCCCCOC(=O)c1ccc(Nc2nc(-c3cnc(OC)nc3)cs2)cc1C(F)(F)F [compound 779, octyl 4-(4-(2-methoxypyrimidin-5-yl)thiazol-2-ylamino)-2-(trifluoromethyl)benzoate]	< 1000 nM
CCCCCCC#Cc1ccc(Nc2nc(-c3cnc(OC)nc3)cs2)cc1C(F)(F)F [compound 780, N-(3-(trifluoromethyl)-4-(oct-1-ynyl)phenyl)-4-(2-methoxypyrimidin-5-yl)thiazol-2-amine]	< 1000 nM
COc1ncc(-c2csc(Nc3ccc(N4CCC5CCCCC5C4)c(C(F)(F)F)c3)n2)cn1 (stereo not drawn) [compound 781, N-(3-(trifluoromethyl)-4-(octahydroisoquinolin-2(1H)-yl)phenyl)-4-(2-methoxypyrimidin-5-yl)thiazol-2-amine]	< 1000 nM
CCCCCCCCOc1ccc(Nc2nc(-c3ccc(O)cc3O)cs2)cc1C(F)(F)F [compound 782, 4-(2-(3-(trifluoromethyl)-4-(octyloxy)phenylamino)thiazol-4-yl)benzene-1,3-diol]	< 1000 nM
CCCCCCCCOc1ccc(Nc2nc(-c3cccn3C)cs2)cc1C(F)(F)F [compound 783, N-(3-(trifluoromethyl)-4-(octyloxy)phenyl)-4-(1-methyl-1H-pyrrol-2-yl)thiazol-2-amine]	< 1000 nM
CCCCCCCCOc1ccc(Nc2nc(C(=O)CNc3nccs3)cs2)cc1C(F)(F)F [compound 784, 1-(2-(3-(trifluoromethyl)-4-(octyloxy)phenylamino)thiazol-4-yl)-2-(thiazol-2-ylamino)ethanone]	< 1000 nM
CCCCCCCCOc1ccc(Nc2nc(C(=O)CSc3ncc[nH]3)cs2)cc1C(F)(F)F [compound 785, 2-(1H-imidazol-2-ylthio)-1-(2-(3-(trifluoromethyl)-4-(octyloxy)phenylamino)thiazol-4-yl)ethanone]	1000 to 10000 nM
CCCCCCCCOc1ccc(Nc2nc(C3=CSC4=NCCCN34)cs2)cc1C(F)(F)F [compound 786, N-(3-(trifluoromethyl)-4-(octyloxy)phenyl)-4-(6,7-dihydro-5H-thiazolo[3,2-a]pyrimidin-3-yl)thiazol-2-amine]	< 1000 nM
CCCCCCCCOc1ccc(Nc2nc(-c3cccnc3)c([N+](=O)[O-])s2)cc1C(F)(F)F [compound 787, N-(3-(trifluoromethyl)-4-(octyloxy)phenyl)-5-nitro-4-(pyridin-3-yl)thiazol-2-amine]	1000 to 10000 nM
CCCCCCC#Cc1ccc(Nc2nc(-c3cccnc3)cs2)cc1C(F)(F)F [compound 789, N-(3-(trifluoromethyl)-4-(oct-1-ynyl)phenyl)-4-(pyridin-3-yl)thiazol-2-amine]	< 1000 nM
CCOC(=O)Cc1csc(Nc2nc(-c3cccnc3)cs2)n1 [compound 790, ethyl 2-(2-(4-(pyridin-3-yl)thiazol-2-ylamino)thiazol-4-yl)acetate]	> 10000 nM
c1cncc(-c2csc(Nc3nc4ccccc4[nH]3)n2)c1 [compound 791, N-(4-(pyridin-3-yl)thiazol-2-yl)-1H-benzo[d]imidazol-2-amine]	> 10000 nM
O=S1(=O)CCN(Cc2ccc(Nc3nc(-c4cccnc4)cs3)cc2)CC1 [compound 792]	> 10000 nM
FC(F)(F)c1ccc(-c2cc(Nc3nc(-c4cccnc4)cs3)on2)cc1 [compound 793, 3-(4-(trifluoromethyl)phenyl)-N-(4-(pyridin-3-yl)thiazol-2-yl)isoxazol-5-amine]	> 10000 nM
Cc1ccc2nc(Nc3nc(-c4cccnc4)cs3)sc2c1 [compound 794, 6-methyl-N-(4-(pyridin-3-yl)thiazol-2-yl)benzo[d]thiazol-2-amine]	> 10000 nM
CCCCOC(=O)c1n[nH]c(Nc2nc(-c3cccnc3)cs2)n1 [compound 795, butyl 5-(4-(pyridin-3-yl)thiazol-2-ylamino)-1H-1,2,4-triazole-3-carboxylate]	> 10000 nM
c1ccc(-c2nsc(Nc3nc(-c4cccnc4)cs3)n2)cc1 [compound 796, 3-phenyl-N-(4-(pyridin-3-yl)thiazol-2-yl)-1,2,4-thiadiazol-5-amine]	> 10000 nM
CC(C)(C)c1csc(Nc2nc(-c3cccnc3)cs2)n1 [compound 797, 4-tert-butyl-N-(4-(pyridin-3-yl)thiazol-2-yl)thiazol-2-amine]	> 10000 nM
FC(F)(F)c1cc(Nc2nc(-c3cccnc3)cs2)ccc1OCCCCc1cccs1 [compound 799, N-(4-(4-(thiophen-2-yl)butoxy)-3-(trifluoromethyl)phenyl)-4-(pyridin-3-yl)thiazol-2-amine]	< 1000 nM
FC(F)(F)c1cc(Nc2nc(-c3cccnc3)cs2)ccc1OCCCc1cccnc1 [compound 800, N-(4-(3-(pyridin-3-yl)propoxy)-3-(trifluoromethyl)phenyl)-4-(pyridin-3-yl)thiazol-2-amine]	< 1000 nM
CCCCCCCCOc1ccc(Nc2nc(C3=CSC4=NC(=O)CN34)cs2)cc1C(F)(F)F [compound 801, 3-(2-(3-(trifluoromethyl)-4-(octyloxy)phenylamino)thiazol-4-yl)imidazo[2,1-b]thiazol-6(SH)-one]	< 1000 nM

Compound	EC50
CN(CCOc1ccc(Nc2nc(-c3cccnc3)cs2)cc1C(F)(F)F)c1ccccc1 [compound 802]	< 1000 nM
COc1ncc(-c2csc(Nc3ccc(OCCCC4CCCC4)c(C(F)(F)F)c3)n2)cn1 [compound 803, N-(4-(3-cyclopentylpropoxy)-3-(trifluoromethyl)phenyl)-4-(2-methoxypyrimidin-5-yl)thiazol-2-amine]	< 1000 nM
FC(F)(F)c1cc(Nc2nc(-c3cccnc3)cs2)ccc1OCCCCc1ccccc1 [compound 804, N-(4-(4-phenylbutoxy)-3-(trifluoromethyl)phenyl)-4-(pyridin-3-yl)thiazol-2-amine]	< 1000 nM
Cc1ccc(CCCCOc2ccc(Nc3nc(-c4cccnc4)cs3)cc2C(F)(F)F)cc1 [compound 805, N-(4-(4-p-tolylbutoxy)-3-(trifluoromethyl)phenyl)-4-(pyridin-3-yl)thiazol-2-amine]	1000 to 10000 nM
Fc1ccc(-c2csc(Nc3ccc(OCCCc4cccnc4)c(C(F)(F)F)c3)n2)cc1 [compound 806, N-(4-(3-(pyridin-3-yl)propoxy)-3-(trifluoromethyl)phenyl)-4-(4-fluorophenyl)thiazol-2-amine]	1000 to 10000 nM
CCCCCCCCOc1ccc(Nc2nc(-c3csc4nccn34)cs2)cc1C(F)(F)F [compound 807, N-(3-(trifluoromethyl)-4-(octyloxy)phenyl)-4-(imidazo[2,1-b]thiazol-3-yl)thiazol-2-amine]	< 1000 nM
CCCCCCCCOc1ccc(Nc2nc(C(=O)CSC3=NC(=O)CC(=O)N3)cs2)cc1C(F)(F)F [compound 808, 2-(2-(2-(3-(trifluoromethyl)-4-(octyloxy)phenylamino)thiazol-4-yl)-2-oxoethylthio)pyrimidine-4,6(1H,5H)-dione]	< 1000 nM
CCCCCCCCOc1ccc(Nc2nc(-c3c[nH]nc3C#N)cs2)cc1C(F)(F)F [compound 809, 4-(2-(3-(trifluoromethyl)-4-(octyloxy)phenylamino)thiazol-4-yl)-1H-pyrazole-3-carbonitrile]	< 1000 nM
CCCCCCCCOc1ccc(Nc2nc(-c3cnc(N)nc3)cs2)cc1C(F)(F)F [compound 810, 5-(2-(3-(trifluoromethyl)-4-(octyloxy)phenylamino)thiazol-4-yl)pyrimidin-2-amine]	< 1000 nM
CCCCCCCCOc1ccc(Nc2nc(-c3cnc[nH]3)cs2)cc1C(F)(F)F [compound 811, N-(3-(trifluoromethyl)-4-(octyloxy)phenyl)-4-(1H-imidazol-5-yl)thiazol-2-amine]	< 1000 nM
CCCCCCCCOc1ccc(Nc2nc(-c3ccsc3Cl)cs2)cc1C(F)(F)F [compound 812, 4-(2-chlorothiophen-3-yl)-N-(3-(trifluoromethyl)-4-(octyloxy)phenyl)thiazol-2-amine]	< 1000 nM
CCCCCCCCOc1ccc(Nc2nc(-c3cccnc3C#N)cs2)cc1C(F)(F)F [compound 813, 3-(2-(3-(trifluoromethyl)-4-(octyloxy)phenylamino)thiazol-4-yl)pyridine-2-carbonitrile]	< 1000 nM
CCCCCCCCOc1ccc(Nc2nc(-c3cccnc3C(N)=O)cs2)cc1C(F)(F)F [compound 814, 3-(2-(3-(trifluoromethyl)-4-(octyloxy)phenylamino)thiazol-4-yl)pyridine-2-carboxamide]	1000 to 10000 nM
c1cncc(-c2csc(Nc3nc(-c4ccc5ccccc5c4)cs3)n2)c1 [compound 815, 4-(naphthalen-2-yl)-N-(4-(pyridin-3-yl)thiazol-2-yl)thiazol-2-amine]	1000 to 10000 nM
COc1ccc(Nc2nc(-c3cccnc3)cs2)cc1S(=O)(=O)Nc1ccc(Cl)cc1 [compound 818]	> 10000 nM
CCN(CC)S(=O)(=O)c1cc(Nc2nc(-c3cccnc3)cs2)ccc1Cl [compound 819]	> 10000 nM
CCN(CC)C(=O)c1ccc(Nc2nc(-c3cccnc3)cs2)cc1 [compound 820, 4-(4-(pyridin-3-yl)thiazol-2-ylamino)-N,N-diethylbenzamide]	> 10000 nM
CN(C)C(=O)c1ccc(Nc2nc(-c3cccnc3)cs2)cc1 [compound 821, 4-(4-(pyridin-3-yl)thiazol-2-ylamino)-N,N-dimethylbenzamide]	> 10000 nM
CCCCCCC=Cc1ccc(Nc2nc(-c3cccnc3)cs2)cc1C(F)(F)F [compound 822, N-(3-(trifluoromethyl)-4-(oct-1-enyl)phenyl)-4-(pyridin-3-yl)thiazol-2-amine]	< 1000 nM
CCCCCCCOc1ccc(Nc2nc(-c3cccnc3)cs2)cc1C(F)(F)F [compound 823, N-(3-(trifluoromethyl)-4-(heptyloxy)phenyl)-4-(pyridin-3-yl)thiazol-2-amine]	< 1000 nM
